Reference: ChEMBL document CHEMBL5038625, “Application of the dual-tail approach for the design and synthesis of novel Thiopyrimidine-Benzenesulfonamide hybrids as selective carbonic anhydrase inhibitors” (Eur J Med Chem, 2022)

Legend:
Carbonic anhydrase 9 = Carbonic anhydrase 9 (Homo sapiens, UniProt Q16790); assay: Inhibition of human CA9 preincubated for 15 mins by phenol red dye based stopped flow CO2 hydration assay
SF-539 = assay: Antiproliferative activity against human SF-539 cells assessed as cell growth inhibition at 10 uM incubated for 24 hrs by sulforhodamine B assay; format: functional; details: read-out: GI
CCRF-CEM = assay: Antiproliferative activity against human CCRF-CEM cells assessed as cell growth inhibition at 10 uM incubated for 24 hrs by sulforhodamine B assay; format: functional; details: read-out: GI
HL-60 = assay: Antiproliferative activity against human HL-60 cells assessed as cell growth inhibition at 10 uM incubated for 24 hrs by sulforhodamine B assay; format: functional; details: read-out: GI
K562 = assay: Antiproliferative activity against human K562 cells assessed as cell growth inhibition at 10 uM incubated for 24 hrs by sulforhodamine B assay; format: functional; details: read-out: GI
MOLT-4 = assay: Antiproliferative activity against human MOLT-4 cells assessed as cell growth inhibition at 10 uM incubated for 24 hrs by sulforhodamine B assay; format: functional; details: read-out: GI
RPMI-8226 = assay: Antiproliferative activity against human RPMI-8226 cells assessed as cell growth inhibition at 10 uM incubated for 24 hrs by sulforhodamine B assay; format: functional; details: read-out: GI
SR = assay: Antiproliferative activity against human SR cells assessed as cell growth inhibition at 10 uM incubated for 24 hrs by sulforhodamine B assay; format: functional; details: read-out: GI
A549 = assay: Antiproliferative activity against human A549 cells assessed as cell growth inhibition at 10 uM incubated for 24 hrs by sulforhodamine B assay; format: functional; details: read-out: GI
EKVX = assay: Antiproliferative activity against human EKVX cells assessed as cell growth inhibition at 10 uM incubated for 24 hrs by sulforhodamine B assay; format: functional; details: read-out: GI
HOP-92 = assay: Antiproliferative activity against human HOP-92 cells assessed as cell growth inhibition at 10 uM incubated for 24 hrs by sulforhodamine B assay; format: functional; details: read-out: GI
NCI-H226 = assay: Antiproliferative activity against human NCI-H226 cells assessed as cell growth inhibition at 10 uM incubated for 24 hrs by sulforhodamine B assay; format: functional; details: read-out: GI
HCT-116 = assay: Antiproliferative activity against human HCT-116 cells assessed as cell growth inhibition at 10 uM incubated for 24 hrs by sulforhodamine B assay; format: functional; details: read-out: GI
HCT-15 = assay: Antiproliferative activity against human HCT-15 cells assessed as cell growth inhibition at 10 uM incubated for 24 hrs by sulforhodamine B assay; format: functional; details: read-out: GI
SF-295 = assay: Antiproliferative activity against human SF-295 cells assessed as cell growth inhibition at 10 uM incubated for 24 hrs by sulforhodamine B assay; format: functional; details: read-out: GI
U-251 = assay: Antiproliferative activity against human U-251 cells assessed as cell growth inhibition at 10 uM incubated for 24 hrs by sulforhodamine B assay; format: functional; details: read-out: GI
SK-MEL-5 = assay: Antiproliferative activity against human SK-MEL-5 cells assessed as cell growth inhibition at 10 uM incubated for 24 hrs by sulforhodamine B assay; format: functional; details: read-out: GI
OVCAR-4 = assay: Antiproliferative activity against human OVCAR-4 cells assessed as cell growth inhibition at 10 uM incubated for 24 hrs by sulforhodamine B assay; format: functional; details: read-out: GI
OVCAR-8 = assay: Antiproliferative activity against human OVCAR-8 cells assessed as cell growth inhibition at 10 uM incubated for 24 hrs by sulforhodamine B assay; format: functional; details: read-out: GI
NCI/ADR-RES = assay: Antiproliferative activity against human NCI-ADR-RES cells assessed as cell growth inhibition at 10 uM incubated for 24 hrs by sulforhodamine B assay; format: functional; details: read-out: GI
A498 = assay: Antiproliferative activity against human A498 cells assessed as cell growth inhibition at 10 uM incubated for 24 hrs by sulforhodamine B assay; format: functional; details: read-out: GI
CAKI-1 = assay: Antiproliferative activity against human CAKI-1 cells assessed as cell growth inhibition at 10 uM incubated for 24 hrs by sulforhodamine B assay; format: functional; details: read-out: GI
RXF 393 = assay: Antiproliferative activity against human RXF 393 cells assessed as cell growth inhibition at 10 uM incubated for 24 hrs by sulforhodamine B assay; format: functional; details: read-out: GI
SN12C = assay: Antiproliferative activity against human SN12C cells assessed as cell growth inhibition at 10 uM incubated for 24 hrs by sulforhodamine B assay; format: functional; details: read-out: GI
UO-31 = assay: Antiproliferative activity against human UO-31 cells assessed as cell growth inhibition at 10 uM incubated for 24 hrs by sulforhodamine B assay; format: functional; details: read-out: GI
PC-3 = assay: Antiproliferative activity against human PC-3 cells assessed as cell growth inhibition at 10 uM incubated for 24 hrs by sulforhodamine B assay; format: functional; details: read-out: GI
MCF7 = assay: Antiproliferative activity against human MCF7 cells assessed as cell growth inhibition at 10 uM incubated for 24 hrs by sulforhodamine B assay; format: functional; details: read-out: GI
T47D = assay: Antiproliferative activity against human T47D cells assessed as cell growth inhibition at 10 uM incubated for 24 hrs by sulforhodamine B assay; format: functional; details: read-out: GI
MDA-MB-231 = assay: Antiproliferative activity against human MDA-MB-231 cells assessed as cell growth inhibition at 10 uM incubated for 24 hrs by sulforhodamine B assay; format: functional; details: read-out: GI
KM12 = assay: Antiproliferative activity against human KM12 cells assessed as cell growth inhibition at 10 uM incubated for 24 hrs by sulforhodamine B assay; format: functional; details: read-out: GI
SF-268 = assay: Antiproliferative activity against human SF-268 cells assessed as cell growth inhibition at 10 uM incubated for 24 hrs by sulforhodamine B assay; format: functional; details: read-out: GI
LOX IMVI = assay: Antiproliferative activity against human LOX IMVI cells assessed as cell growth inhibition at 10 uM incubated for 24 hrs by sulforhodamine B assay; format: functional; details: read-out: GI
786-0 = assay: Antiproliferative activity against human 786-0 cells assessed as cell growth inhibition at 10 uM incubated for 24 hrs by sulforhodamine B assay; format: functional; details: read-out: GI
ACHN = assay: Antiproliferative activity against human ACHN cells assessed as cell growth inhibition at 10 uM incubated for 24 hrs by sulforhodamine B assay; format: functional; details: read-out: GI
Hs-578T = assay: Antiproliferative activity against human HS-578T cells assessed as cell growth inhibition at 10 uM incubated for 24 hrs by sulforhodamine B assay; format: functional; details: read-out: GI
MDA-MB-468 = assay: Antiproliferative activity against human MDA-MB-468 cells assessed as cell growth inhibition at 10 uM incubated for 24 hrs by sulforhodamine B assay; format: functional; details: read-out: GI

Ki (Carbonic anhydrase 9)	SMILES	inhibition of growth at 10 µM (SF-539)	inhibition of growth at 10 µM (K562)	inhibition of growth at 10 µM (MOLT-4)	inhibition of growth at 10 µM (RPMI-8226)	inhibition of growth at 10 µM (SR)	inhibition of growth at 10 µM (EKVX)	inhibition of growth at 10 µM (HCT-15)	inhibition of growth at 10 µM (U-251)	inhibition of growth at 10 µM (OVCAR-4)	inhibition of growth at 10 µM (A498)	inhibition of growth at 10 µM (CAKI-1)	inhibition of growth at 10 µM (RXF 393)	inhibition of growth at 10 µM (UO-31)	inhibition of growth at 10 µM (PC-3)	inhibition of growth at 10 µM (MCF7)	inhibition of growth at 10 µM (T47D)	inhibition of growth at 10 µM (MDA-MB-231)	further results
0.0923 µM	CC(C)c1nc(SCC(=O)c2ccccc2)nc(Nc2cccc(S(N)(=O)=O)c2)c1C#N	12.2%	26.7%	28.2%	17.9%	19%	5.72%	12.1%	5.45%	9.85%	10.7%	10.8%	17.3%	27.4%	27.3%	12.6%	17.9%	14.9%	inhibition of growth at 10 µM (CCRF-CEM): 13.8%; inhibition of growth at 10 µM (HL-60): 25.2%; inhibition of growth at 10 µM (A549): 5.5%; inhibition of growth at 10 µM (HOP-92): 61%; inhibition of growth at 10 µM (NCI-H226): 10%; inhibition of growth at 10 µM (HCT-116): 5.73%; inhibition of growth at 10 µM (SF-295): 5.43%; inhibition of growth at 10 µM (SK-MEL-5): 7.01%; inhibition of growth at 10 µM (OVCAR-8): 5%; inhibition of growth at 10 µM (NCI/ADR-RES): 5.69%; inhibition of growth at 10 µM (SN12C): 8.21%
0.007 µM	COc1ccc(C(=O)CSc2nc(Nc3cccc(S(N)(=O)=O)c3)c(C#N)c(-c3cc(OC)ccc3OC)n2)cc1	11.2%	10.7%	18.2%	12.6%	12.7%	6.35%	10.6%	9.1%	7.16%	23.9%	29.2%	11.7%	29.2%	8.57%	11.8%	15.2%	5.72%	inhibition of growth at 10 µM (KM12): 5.79%; inhibition of growth at 10 µM (SF-268): 5.3%; inhibition of growth at 10 µM (LOX IMVI): 11.3%; inhibition of growth at 10 µM (786-0): 7.02%; inhibition of growth at 10 µM (ACHN): 5.69%; inhibition of growth at 10 µM (Hs-578T): 10.4%; inhibition of growth at 10 µM (MDA-MB-468): 8.93%
